Assay results published in patent US9969758B2, “Antimicrobial compounds” (BIOMERIEUX, priority 2014, dated 2018).
≈ marks a conversion by molar mass, not a printed value.

What was measured:
Assay in all cases: MIC by agar dilution, single strains
Assay type in all cases: cell-based
[1] = tested on: Acinetobacter baumannii ATCC 19606; conditions: ATCC19606, 22 hours of incubation, read-out: Minimum inhibitory concentration (MIC)
Description: (§1) Determining the minimum inhibitory concentrations (MIC). All the MICs were determined using an agar dilution method. This required use of a medium without a defined antagonist (peptone-free), prepared as described previously with the inclusion of 2% horse blood lysed with saponin, 25.0 μg/mL of NAD and 25.0 μg/mL of hemin [17]. The compounds tested were dissolved in sterile deionised water and incorporated into the agar medium in a concentration range of 0.0031 to 8.0 μg/mL (0.016 to 32 μg/mL for gram-positive bacteria). All the isolates were prepared at a density equivalent to 0.5 McFarland units in sterile deionised water using a densitometer (approximately 1.5×10^8 CFU/mL), and then diluted to 1 for 15. An aliquot of 1 μL of each diluted suspension was then placed onto plates with a multispot inoculator to give the final recommended inoculation of 10 000 CFU/spot. The MICs of fosfomycin were determined by the same method, except that the IsoSensitest medium (Oxoid, Basingstoke, United Kingdom) was used, plus 25.0 μg/mL of glucose-6-phosphate (Sigma, Poole, United Kingdom) and an extended range of fosfomycin concentrations. All the dishes (including the antimicrobial-free controls) were incubated for 22 hours at 37° C. All the tests were performed on at least two independent replicates in order to examine the reproducibility.

[2] = tested on: Burkholderia cepacia ATCC 25416; conditions: ATCC25416, 22 hours of incubation, read-out: Minimum inhibitory concentration (MIC)
Description: as §1

[3] = tested on: Enterobacter cloacae NCTC 11936; conditions: NCTC11936, 22 hours of incubation, read-out: Minimum inhibitory concentration (MIC)
Description: as §1

[4] = tested on: Enterococcus faecalis NCTC 775; conditions: NCTC775, 22 hours of incubation, read-out: Minimum inhibitory concentration (MIC)
Description: as §1

[5] = tested on: Enterococcus faecium NCTC 7171; conditions: NCTC7171, 22 hours of incubation, read-out: Minimum inhibitory concentration (MIC)
Description: as §1

[6] = tested on: Escherichia coli NCTC 10418; conditions: NCTC10418, 22 hours of incubation, read-out: Minimum inhibitory concentration (MIC)
Description: as §1

[7] = tested on: Escherichia coli NCTC 12241; conditions: NCTC12241, 22 hours of incubation, read-out: Minimum inhibitory concentration (MIC)
Description: as §1

[8] = tested on: Klebsiella pneumoniae NCTC 9528; conditions: NCTC9528, 22 hours of incubation, read-out: Minimum inhibitory concentration (MIC)
Description: as §1

[9] = tested on: Listeria monocytogenes NCTC 11994; conditions: NCTC11994, 22 hours of incubation, read-out: Minimum inhibitory concentration (MIC)
Description: as §1

[10] = tested on: Providencia rettgeri NCTC 7475; conditions: NCTC7475, 22 hours of incubation, read-out: Minimum inhibitory concentration (MIC)
Description: as §1

[11] = tested on: Pseudomonas aeruginosa NCTC 10662; conditions: NCTC10662, 22 hours of incubation, read-out: Minimum inhibitory concentration (MIC)
Description: as §1

[12] = tested on: Salmonella enteritidis NCTC 6676; conditions: Salmonella enterica, 22 hours of incubation, read-out: Minimum inhibitory concentration (MIC)
Description: as §1

[13] = tested on: Salmonella typhimurium NCTC 74; conditions: Salmonella enterica, 22 hours of incubation, read-out: Minimum inhibitory concentration (MIC)
Description: as §1

[14] = tested on: Serratia marcescens NCTC 10211; conditions: NCTC10211, 22 hours of incubation, read-out: Minimum inhibitory concentration (MIC)
Description: as §1

[15] = tested on: Staphylococci epidermidis NCTC 11047; conditions: 22 hours of incubation, read-out: Minimum inhibitory concentration (MIC)
Description: as §1

[16] = tested on: Staphylococcus aureus NCTC 11939 (SARM); conditions: NCTC11939, 22 hours of incubation, read-out: Minimum inhibitory concentration (MIC)
Description: as §1

[17] = tested on: Staphylococcus aureus NCTC 6571; conditions: NCTC6571, 22 hours of incubation, read-out: Minimum inhibitory concentration (MIC)
Description: as §1

[18] = tested on: Yersinia enterocolitica NCTC 11176; conditions: NCTC11176, 22 hours of incubation, read-out: Minimum inhibitory concentration (MIC)
Description: as §1

Row | Compound | MIC [1] | MIC [2] | MIC [3] | MIC [4] | MIC [5] | MIC [6] | MIC [7] | MIC [8] | MIC [9] | MIC [10] | MIC [11] | MIC [12] | MIC [13] | MIC [14] | MIC [15] | MIC [16] | MIC [17] | MIC [18]
1 | CCC[C@H](N)C(=O)N[C@@H](CCl)C(=O)NC(C)P(=O)(O)O (stereo partly drawn) [compound G, L-Norvalinyl-β-chloro-L-alanyl-D/L-fosfalin] | > 8 µg/mL | > 8 µg/mL | 4 µg/mL (≈ 12.1 µM) | 0.063 µg/mL (≈ 0.191 µM) | 1 µg/mL (≈ 3.03 µM) | 1 µg/mL (≈ 3.03 µM) | 0.5 µg/mL (≈ 1.52 µM) | 0.5 µg/mL (≈ 1.52 µM) | > 8 µg/mL | > 8 µg/mL | > 8 µg/mL | > 8 µg/mL | > 8 µg/mL | 0.5 µg/mL (≈ 1.52 µM) | 2 µg/mL (≈ 6.07 µM) | > 8 µg/mL | 4 µg/mL (≈ 12.1 µM) | 0.25 µg/mL (≈ 0.758 µM)
2 | CSCC[C@H](N)C(=O)N[C@@H](CCl)C(=O)NC(C)P(=O)(O)O (stereo partly drawn) [compound H, L-methionyl-β-chloro-L-alanyl-D/L-fosfalin] | > 8 µg/mL | > 8 µg/mL | 4 µg/mL (≈ 11.1 µM) | 0.032 µg/mL (≈ 0.0884 µM) | 1 µg/mL (≈ 2.76 µM) | 0.5 µg/mL (≈ 1.38 µM) | 0.5 µg/mL (≈ 1.38 µM) | 0.5 µg/mL (≈ 1.38 µM) | > 8 µg/mL | > 8 µg/mL | > 8 µg/mL | > 8 µg/mL | > 8 µg/mL | 0.25 µg/mL (≈ 0.691 µM) | 1 µg/mL (≈ 2.76 µM) | > 8 µg/mL | 2 µg/mL (≈ 5.53 µM) | 0.25 µg/mL (≈ 0.691 µM)
